2 compounds from patent US8785455B2, “Polymorph of linagliptin benzoate” (Sandoz AG, priority 2011, dated 2014) can be followed below.

The nature of data set [1]: dynamic water vapor sorption/desorption (moisture sorption isotherm). Type of data set: physicochemical. The conditions noted are these: for hygroscopicity (in words): comparison of moisture sorption isotherms, FIGS. 4 and 5; for water uptake: from about 3 to 90% relative humidity at about 25° C., w % = weight % of water in relation to total weight. The method, then: The water uptake of the crystalline forms of Linagliptin benzoate was determined by dynamic water vapor sorption/desorption. Therefore both forms were conditioned at about 28% relative humidity (RH) and the initial water content was determined by Karl-Fischer-titration. Then a moisture sorption experiment was performed with an SPSx-1μ moisture sorption analyzer (Projekt Messtechnik, Ulm) by stepwise increasing the RH in the range of about 3% RH to about 90% RH within approximately 2.5 days at 25±0.1° C.

A short description of data set [2]: stability upon storage at conditions of high relative humidity. The data set is classed as physicochemical.

As to `CC#CCn1c(N2CCC[C@@H](N)C2)nc2c1c(=O)n(Cc1nc(C)c3ccccc3n1)c(=O)n2C` [Linagliptin benzoate form II, Linagliptin benzoate], in data set [1], the “hygroscopicity (in words)” value is reported as “significantly less hygroscopic than crystalline Linagliptin benzoate of WO2010/072776 A1” and the water uptake entry is “about 2.0 w %”. Further, the stability upon storage entry in data set [2] is given as “more stable than form I”.

As to `CC#CCn1c(N2CCC[C@@H](N)C2)nc2c1c(=O)n(Cc1nc(C)c3ccccc3n1)c(=O)n2C` [crystalline Linagliptin benzoate of WO2010/072776 A1] [reference compound], the “hygroscopicity (in words)” value in data set [1] (listed as crystalline form of Linagliptin benzoate of WO2010/072776 A1) is reported as “quite hygroscopic”. In addition, the water uptake entry in data set [1] is given as “about 9.5 w %”.
